{
  "source": "ChEMBL document CHEMBL5505956",
  "about": "“Plant-derived strategies to fight against severe acute respiratory syndrome coronavirus 2” (Eur J Med Chem, 2024)",
  "key": {"SARS-CoV-2 [1]": {"system": "SARS-CoV-2", "assay": "Antiviral activity against SARS-CoV-2 infected in African green monkey Vero E6 cells assessed as inhibition of viral growth incubated for 24 hrs by qRT-PCR analysis", "type": "functional, organism-based", "settings": "Severe acute respiratory syndrome coronavirus 2, Vero C1008, 24 h"}, "[2]": {"target": "Replicase polyprotein 1ab (Severe acute respiratory syndrome coronavirus 2, UniProt P0DTD1)", "description": "Inhibition of SARS CoV-2 main protease"}, "SARS-CoV-2 [3]": {"system": "SARS-CoV-2", "assay": "Antiviral activity against SARS-CoV-2 infected in african green monkey Vero E6 cells assessed as reduction in viral replication", "type": "functional, organism-based", "settings": "Severe acute respiratory syndrome coronavirus 2, Vero C1008"}, "SARS-CoV-2 [4]": {"system": "SARS-CoV-2", "assay": "Antiviral activity against SARS-CoV-2 infected in african green monkey Vero E6 cells assessed as reduction in viral growth measured for 2 days by qRT-PCR", "type": "functional, organism-based", "settings": "Severe acute respiratory syndrome coronavirus 2, Vero C1008, 48 h"}, "SARS-CoV-2 [5]": {"system": "SARS-CoV-2", "assay": "Antiviral activity against SARS-CoV-2 infected in human Calu-3 cells assessed as reduction in viral replication incubated for 48 hrs by RT-PCR", "type": "functional, organism-based", "settings": "Severe acute respiratory syndrome coronavirus 2, Calu-3, 48 h"}, "SARS-CoV-2 [6]": {"system": "SARS-CoV-2", "assay": "Antiviral activity against SARS-CoV-2 infected in African green monkey Vero E6 cells assessed as reduction in viral replication measured after 3 days by qRT-PCR analysis", "type": "functional, organism-based", "settings": "Severe acute respiratory syndrome coronavirus 2, Vero C1008, 72 h"}, "SARS-CoV-2 [7]": {"system": "SARS-CoV-2", "assay": "Antiviral activity against SARS-CoV-2 infected in human A549-ACE2 cells assessed as viral growth inhibition", "type": "functional, organism-based", "settings": "Severe acute respiratory syndrome coronavirus 2, A549-ACE2"}, "SARS-CoV-2 [8]": {"system": "SARS-CoV-2", "assay": "Antiviral activity against SARS-CoV-2 infected in monkey Vero E6 cells assessed as inhibition of […]", "type": "functional, organism-based", "settings": "Severe acute respiratory syndrome coronavirus 2, Vero C1008"}},
  "data": [
    {"smiles": "C[C@@H]1CC[C@H]2[C@@H](C)C(=O)O[C@@H]3O[C@@]4(C)CC[C@@H]1[C@]32OO4", "note": "[ARTEMISININ]", "values": [
      {"measurement": "EC50", "setting": "SARS-CoV-2 [1]", "result": 10.3, "unit": "µM"}
    ]},
    {"smiles": "COc1ccc2cc1Oc1ccc(cc1)C[C@H]1c3c(cc4c(c3Oc3cc5c(cc3OC)CCN(C)[C@@H]5C2)OCO4)CCN1C", "note": "[CEPHARANTHINE]", "values": [
      {"measurement": "IC50", "setting": "[2]", "result": 100, "unit": "nM"}
    ]},
    {"smiles": "O=C(O[C@@H]1O[C@@H]2COC(=O)c3cc(O)c(O)c(O)c3-c3c(cc(O)c(O)c3O)C(=O)O[C@H]([C@H]1O)[C@@H]2O)c1cc(O)c(O)c(O)c1", "note": "[CORILAGIN]", "values": [
      {"measurement": "EC50", "setting": "SARS-CoV-2 [3]", "result": 130, "unit": "nM"}
    ]},
    {"smiles": "COc1cc(/C=C/C(=O)CC(=O)/C=C/c2ccc(O)c(OC)c2)ccc1O", "note": "[CURCUMIN]", "values": [
      {"measurement": "EC50", "setting": "SARS-CoV-2 [4]", "result": 38, "unit": "µM"},
      {"measurement": "EC50", "setting": "SARS-CoV-2 [5]", "result": 38, "unit": "µM"}
    ]},
    {"smiles": "O=C(O[C@@H]1Cc2c(O)cc(O)cc2O[C@@H]1c1cc(O)c(O)c(O)c1)c1cc(O)c(O)c(O)c1", "note": "[EPIGALOCATECHIN GALLATE]", "values": [
      {"measurement": "EC50", "setting": "SARS-CoV-2 [6]", "result": 10, "unit": "µM"}
    ]},
    {"smiles": "CC1(C)[C@@H](O[C@H]2O[C@H](C(=O)O)[C@@H](O)[C@H](O)[C@H]2O[C@@H]2O[C@H](C(=O)O)[C@@H](O)[C@H](O)[C@H]2O)CC[C@]2(C)[C@H]3C(=O)C=C4[C@@H]5C[C@@](C)(C(=O)O)CC[C@]5(C)CC[C@@]4(C)[C@]3(C)CC[C@@H]12", "note": "[GLYCYRRHIZIN]", "values": [
      {"measurement": "EC50", "setting": "SARS-CoV-2 [7]", "result": 0.44, "unit": "µg/mL"}
    ]},
    {"smiles": "O=c1c(O)c(-c2cc(O)c(O)c(O)c2)oc2cc(O)cc(O)c12", "note": "[MYRICETIN]", "values": [
      {"measurement": "EC50", "setting": "SARS-CoV-2 [8]", "result": 8, "unit": "µM"}
    ]},
    {"smiles": "Cc1ccc(C(=O)Nc2ccc(S(=O)(=O)O)c3cc(S(=O)(=O)O)cc(S(=O)(=O)O)c23)cc1NC(=O)c1cccc(NC(=O)Nc2cccc(C(=O)Nc3cc(C(=O)Nc4ccc(S(=O)(=O)O)c5cc(S(=O)(=O)O)cc(S(=O)(=O)O)c45)ccc3C)c2)c1", "note": "[SURAMIN]", "values": [
      {"measurement": "EC50", "setting": "SARS-CoV-2 [3]", "result": 2930, "unit": "nM"}
    ]}
  ]
}
